Results from patent publication US12084441B2, “Salts of a compound and the crystalline forms thereof” (priority 2017, dated 2024).

What was measured:
[1] = Stability experiment of salt of Formula A (high temperature, high humidity, illumination; HPLC purity and X-ray powder diffraction); format: physicochemical; settings: for Purity (%): HPLC; for Stability (chemical purity and crystalline form): high temperature, illumination or high humidity for 10 days
Method: Determination method: the test samples of Form A-I, Form B-I, Form C-I, and Form C-Ill of salt of Formula A were placed on the culture dishes respectively, which were uncovered and placed in sealed clean containers. The containers were placed under a temperature of 60° C. for 10 days, under an illumination of 4500 lx±500 lx for 10 days, and under a temperature of 25° C. and a relative humidity of 92.5%±5% for 10 days respectively. Then sampled on the 5th day and the 10th day respectively. Investigated for the purity (using HPLC analysis) and crystalline form (using X-ray powder diffraction analysis) of the samples, and compared the investigation results. The experimental results of the salts and the crystalline forms thereof were shown in Table 1, Table 2, Table 3, and Table 4.9

[2] = Rough solubility test of salt of Formula A in water; format: physicochemical; settings: Purified Water, 19° C.; for solubility at 5 min: thermodynamic from solid
Method: After each addition of water, the test tube was shaken for 5 minutes until the solid was dissolved completely. Then the rough solubility of the compound was calculated according to the weight of the compound weighed and the total amount of water added.

physchem = settings: water, thermodynamic from solid, Solubility (mg/mL)
Source text: (§1) Then the excess solids were filtered out, and the clear filtrates were used to determine solubility.

[3] = Solubility test of salt of Formula A (acetate, Form A-I) and its free base in different solvents; settings: thermodynamic from solid
Source text: as §1

[4] = 0 day, crystalline form by X-ray powder diffraction
[5] = High humidity (92.5% RH, 25° C.), 5 days
[6] = High humidity (92.5% RH, 25° C.), 5 days, X-ray powder diffraction
[7] = High humidity (92.5% RH, 25° C.), 10 days
[8] = High humidity (92.5% RH, 25° C.), 10 days, X-ray powder diffraction
[9] = High temperature (60° C.), 5 days
[10] = High temperature (60° C.), 5 days, X-ray powder diffraction
[11] = High temperature (60° C.), 10 days
[12] = High temperature (60° C.), 10 days, X-ray powder diffraction
[13] = Illumination (4500 Lx), 5 days, X-ray powder diffraction
[14] = Illumination (4500 Lx), 10 days
[15] = Illumination (4500 Lx), 10 days, X-ray powder diffraction
[16] = High humidity (92.5% RH, 25° C.), 5 days, monomalate
[17] = High humidity (92.5% RH, 25° C.), 10 days, monomalate
[18] = High temperature (60° C.), 5 days, monomalate
[19] = High temperature (60° C.), 10 days, monomalate
[20] = Illumination (4500 Lx), 5 days, monomalate
[21] = Illumination (4500 Lx), 10 days, monomalate
[22] = High humidity (92.5% RH, 25° C.), 5 days, malate
[23] = High humidity (92.5% RH, 25° C.), 10 days, malate
[24] = High temperature (60° C.), 5 days, malate
[25] = High temperature (60° C.), 10 days, malate
[26] = Illumination (4500 Lx), 5 days, malate
[27] = Illumination (4500 Lx), 10 days, malate

## CC(=O)O.CS(=O)(=O)N1CCC(c2ccc(-c3cc4nccnc4c(NC[C@@H]4CNCCO4)n3)cc2)CC1 [Form A-I, (S)-7-(4-(1-(methylsulfonyl)piperidin-4-yl)phenyl)-N-(morpholin-2-ylmethyl)pyrido[3,4-b]pyrazin-5-amine monoacetate]
[1]; 0 day
  Chiral Purity (%): 99.63%
  Purity (%): 99.39%
[1]; [4]
  Form: A-I
[1]; [5]
  Chiral Purity (%): 99.69%
  Purity (%): 99.35%
[1]; [6]
  Form: A-I
[1]; [7]
  Chiral Purity (%): 99.71%
  Purity (%): 99.53%
[1]; [8]
  Form: A-I
[1]; [9]
  Chiral Purity (%): 99.66%
  Purity (%): 99.31%
[1]; [10]
  Form: A-I
[1]; [11]
  Chiral Purity (%): 99.71%
  Purity (%): 99.37%
[1]; [12]
  Form: A-I
[1]; Illumination (4500 Lx), 5 days
  Chiral Purity (%): 99.69%
  Purity (%): 99.30%
[1]; [13]
  Form: A-I
[1]; [14]
  Chiral Purity (%): 99.71%
  Purity (%): 98.99%
[1]; [15]
  Form: A-I
[1]
  Stability (chemical purity and crystalline form): stable
[2]
  solubility at 5 min: 14600 µg/mL
physchem; 37 °C
  solubility at 4 h: 26200 µg/mL
physchem
  solubility at 4 h: 21800 µg/mL

## CS(=O)(=O)N1CCC(c2ccc(-c3cc4nccnc4c(NC[C@@H]4CNCCO4)n3)cc2)CC1 [Free base of Formula A, (S)-7-(4-(1-(methylsulfonyl)piperidin-4-yl)phenyl)-N-(morpholin-2-ylmethyl) pyrido[3,4-b]pyrazin-5-amine]
[3]; acetone, organic solvent or mixture
  solubility at 4 h: 2120 µg/mL
[3]; ethanol, organic solvent or mixture
  solubility at 4 h: 640 µg/mL
[3]; methanol, organic solvent or mixture
  solubility at 4 h: 1580 µg/mL
[3]; purified water, 37 °C, water
  solubility at 4 h: 2.5 µg/mL
[3]; purified water, water
  solubility at 4 h: 2.4 µg/mL
[3]; tetrahydrofuran, organic solvent or mixture
  solubility at 4 h: 10700 µg/mL

## CS(=O)(=O)N1CCC(c2ccc(-c3cc4nccnc4c(NC[C@@H]4CNCCO4)n3)cc2)CC1.Cc1ccc(S(=O)(=O)O)cc1 [Form B-I, (S)-7-(4-(1-(methylsulfonyl)piperidin-4-yl)phenyl)-N-(morpholin-2-ylmethyl)pyrido[3,4-b]pyrazin-5-amine mono p-Tosylate]
[1]; 0 day
  Chiral Purity (%): 99.71%
  Purity (%): 99.49%
[1]; [4]
  Form: B-I
[1]; [5]
  Chiral Purity (%): 99.76%
  Purity (%): 99.47%
[1]; [6]
  Form: B-I
[1]; [7]
  Chiral Purity (%): 99.71%
  Purity (%): 99.63%
[1]; [8]
  Form: B-I
[1]; [9]
  Chiral Purity (%): 99.70%
  Purity (%): 99.48%
[1]; [10]
  Form: B-I
[1]; [11]
  Chiral Purity (%): 99.76%
  Purity (%): 99.51%
[1]; [12]
  Form: B-I
[1]; Illumination (4500 Lx), 5 days
  Chiral Purity (%): 99.76%
  Purity (%): 99.19%
[1]; [13]
  Form: B-I
[1]; [14]
  Chiral Purity (%): 99.72%
  Purity (%): 99.05%
[1]; [15]
  Form: B-I
[2]
  Rough solubility: 650 µg/mL

## CS(=O)(=O)N1CCC(c2ccc(-c3cc4nccnc4c(NC[C@@H]4CNCCO4)n3)cc2)CC1.O=C(O)CC(O)C(=O)O [Form C-I, (S)-7-(4-(1-(methylsulfonyl)piperidin-4-yl)phenyl)-N-(morpholin-2-ylmethyl)pyrido[3,4-b]pyrazin-5-amine monomalate]
[1]; 0 day, monomalate
  Purity (%): 99.71%
  Chiral Purity (%): 99.52%
[1]; 0 day, crystalline form by X-ray powder diffraction, monomalate
  Form: C-I
[1]; [16]
  Purity (%): 99.72%
  Chiral Purity (%): 99.53%
[1]; High humidity (92.5% RH, 25° C.), 5 days, X-ray powder diffraction, monomalate
  Form: C-I
[1]; [17]
  Purity (%): 99.68%
  Chiral Purity (%): 99.53%
[1]; High humidity (92.5% RH, 25° C.), 10 days, X-ray powder diffraction, monomalate
  Form: C-I
[1]; [18]
  Purity (%): 99.61%
  Chiral Purity (%): 99.52%
[1]; High temperature (60° C.), 5 days, X-ray powder diffraction, monomalate
  Form: C-I
[1]; [19]
  Purity (%): 99.63%
  Chiral Purity (%): 99.54%
[1]; High temperature (60° C.), 10 days, X-ray powder diffraction, monomalate
  Form: C-I
[1]; [20]
  Purity (%): 99.67%
  Chiral Purity (%): 99.51%
[1]; Illumination (4500 Lx), 5 days, X-ray powder diffraction, monomalate
  Form: C-I
[1]; [21]
  Purity (%): 99.61%
  Chiral Purity (%): 99.50%
[1]; Illumination (4500 Lx), 10 days, X-ray powder diffraction, monomalate
  Form: C-I
[1]
  Stability (chemical purity and crystalline form): stable
[2]
  solubility at 5 min: 480 µg/mL

## CS(=O)(=O)N1CCC(c2ccc(-c3cc4nccnc4c(NC[C@@H]4CNCCO4)n3)cc2)CC1.O=C(O)CC(O)C(=O)O [Form C-III, (S)-7-(4-(1-(methylsulfonyl)piperidin-4-yl)phenyl)-N-(morpholin-2-ylmethyl)pyrido[3,4-b]pyrazin-5-amine malate]
[1]; 0 day, malate
  Purity (%): 99.75%
  Chiral Purity (%): 99.39%
[1]; 0 day, crystalline form by X-ray powder diffraction, malate
  Form: C-III
[1]; [22]
  Purity (%): 99.67%
  Chiral Purity (%): 99.39%
[1]; High humidity (92.5% RH, 25° C.), 5 days, X-ray powder diffraction, malate
  Form: C-III
[1]; [23]
  Purity (%): 99.69%
  Chiral Purity (%): 99.38%
[1]; High humidity (92.5% RH, 25° C.), 10 days, X-ray powder diffraction, malate
  Form: C-III
[1]; [24]
  Purity (%): 99.57%
  Chiral Purity (%): 99.40%
[1]; High temperature (60° C.), 5 days, X-ray powder diffraction, malate
  Form: C-III
[1]; [25]
  Purity (%): 99.70%
  Chiral Purity (%): 99.39%
[1]; High temperature (60° C.), 10 days, X-ray powder diffraction, malate
  Form: C-III
[1]; [26]
  Purity (%): 99.59%
  Chiral Purity (%): 99.37%
[1]; Illumination (4500 Lx), 5 days, X-ray powder diffraction, malate
  Form: C-III
[1]; [27]
  Purity (%): 99.65%
  Chiral Purity (%): 99.40%
[1]; Illumination (4500 Lx), 10 days, X-ray powder diffraction, malate
  Form: C-III
